# Reference: US11248013B2, “Tricyclic inhibitors of poly(ADP-ribose)polymerase” (Rakovina Therapeutics Inc., priority 2011, dated 2022)
# Molecular target: PARP-1 (Homo sapiens (Human), UniProt P09874)
# Assay: PARP-1 Enzyme Assay (HT Universal Colorimetric PARP Assay Kit)
# Type: biochemical
# Conditions: OD450, read-out: IC50 (PARP-1 inhibition)
# Experimental: Inhibition of PARP-1 enzymatic activities was measured using an HT Universal Colorimetric PARP Assay Kit (Trevigen, catalogue #4677-096-K) following the standard procedures.
# Serial dilutions of PARP compounds were added to appropriate wells. The compound was incubated with PARP enzyme at RT for 10 min, and the reaction was initiated by addition of the PARP substrate cocktail, Each concentration of compound was tested in triplicate wells. After 15 min reaction, the reaction was stopped, and the Strep-HRP was added into each well and incubated for 1 h at RT. After addition of TACS-Sapphire™ colorimetric substrate and incubated in dark for 15 min, the OD450 was read out with an EnVision instrument. IC50 values (the concentration at which 50% of the enzyme activity is inhibited) were calculated, which are determined over a range of different concentrations, normally from 10 μM to 0.1 nM.
# Sequence of PARP-1 (P09874 whole entry): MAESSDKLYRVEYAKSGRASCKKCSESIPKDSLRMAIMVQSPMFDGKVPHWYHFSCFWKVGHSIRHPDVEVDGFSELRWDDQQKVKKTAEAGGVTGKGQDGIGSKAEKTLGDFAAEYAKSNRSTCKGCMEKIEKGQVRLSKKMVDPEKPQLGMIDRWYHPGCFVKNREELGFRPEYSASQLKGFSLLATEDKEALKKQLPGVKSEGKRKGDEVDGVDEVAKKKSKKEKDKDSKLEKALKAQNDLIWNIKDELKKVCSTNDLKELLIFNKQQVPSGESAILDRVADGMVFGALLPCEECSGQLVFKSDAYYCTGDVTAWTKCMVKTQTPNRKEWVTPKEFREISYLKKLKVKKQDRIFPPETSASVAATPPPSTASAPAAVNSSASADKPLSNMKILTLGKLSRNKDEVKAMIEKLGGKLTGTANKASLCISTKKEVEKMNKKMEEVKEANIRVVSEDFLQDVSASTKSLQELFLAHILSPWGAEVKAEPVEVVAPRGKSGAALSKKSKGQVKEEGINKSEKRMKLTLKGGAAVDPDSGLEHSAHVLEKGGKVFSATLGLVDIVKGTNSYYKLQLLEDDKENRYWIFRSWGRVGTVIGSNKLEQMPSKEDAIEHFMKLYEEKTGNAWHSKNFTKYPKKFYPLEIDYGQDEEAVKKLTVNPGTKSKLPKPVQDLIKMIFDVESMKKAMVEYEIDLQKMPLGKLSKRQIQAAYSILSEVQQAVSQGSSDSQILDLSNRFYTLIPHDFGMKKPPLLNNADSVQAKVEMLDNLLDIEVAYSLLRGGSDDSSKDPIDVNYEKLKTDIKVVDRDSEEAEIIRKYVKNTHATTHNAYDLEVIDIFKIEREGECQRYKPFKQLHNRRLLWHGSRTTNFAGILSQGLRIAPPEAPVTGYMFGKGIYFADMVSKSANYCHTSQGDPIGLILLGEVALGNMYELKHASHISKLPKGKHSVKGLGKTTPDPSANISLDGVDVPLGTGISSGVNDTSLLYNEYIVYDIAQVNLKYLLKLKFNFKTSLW
row,Compound,IC50 [nM]
1,"O=c1[nH]nc(Cc2ccc(F)c(P3(=O)CCN(c4ncc5ccccc5n4)CC3)c2)c2ccccc12 [Example 30, 4-(4-fluoro-3-(4-oxido-1-(quinazolin-2-yl)-1,4-azaphosphinan-4-yl)benzyl)phthalazin-1(2H)-one]",< 100
2,"CC(C)(C)CN1CCP(=O)(c2cc(Cc3n[nH]c(=O)c4ccccc34)ccc2F)CC1 [Example 46, 4-(4-fluoro-3-(1-neopentyl-4-oxido-l,4-azaphosphinan-4-yl)benzyl)phthalazin-1(2H)-one]",< 100
3,"O=c1[nH]nc(Cc2ccc(F)c(P3(=O)CCN(c4ccc(Cl)nn4)CC3)c2)c2ccccc12 [Example 13, 4-(3-(1-(6-chloropyridazin-3-yl)-4-oxido-1,4-azaphosphinan-4-yl)-4-fluorobenzyl)phthalazin-1(2H)-one]",< 100
4,"CCCc1cnc(N2CCP(=O)(c3cc(Cc4n[nH]c(=O)c5ccccc45)ccc3F)CC2)nc1 [Example 37, 4-(4-fluoro-3-(4-oxido-1-(5-(n-propyl)pyrimidin-2-yl)-1,4-azaphosphinan-4-yl)benzyl)phthalazin-1(2H)-one]",100 to 1000
5,"4-(3-(1-(cyclobutanecarbonyl)-4-oxido-1,4-azaphosphinan-4-yl)-4-fluorobenzyl)phthalazin-1(2H)-one [Example 4]",< 100
6,"N#Cc1ccc(N2CCP(=O)(c3cc(Cc4n[nH]c(=O)c5ccccc45)ccc3F)CC2)cc1 [Example 15, 4-(4-(2-fluoro-5-((4-oxo-3,4-dihydrophthalazin-1-yl)methyl)phenyl)-4-oxido-1,4-azaphosphinan-1-yl)benzonitrile]",1000 to 10000
7,"O=c1[nH]nc(Cc2ccc(F)c(P3(=O)CCN(c4ccc(C(F)(F)F)cn4)CC3)c2)c2ccccc12 [Example 24, 4-(4-fluoro-3-(4-oxido-1-(5-(trifluoromethyl)pyridin-2-yl)-1,4-azaphosphinan-4-yl)benzyl)phthalazin-1(2H)-one]",< 100
8,"4-(3-(1-(3,3-dimethylbutanoyl)-4-oxido-1,4-azaphosphinan-4-yl)-4-fluorobenzyl)phthalazin-1(2H)-one [Example 5]",< 100
9,"4-(3-(1-(3,3-difluoropyrrolidine-1-carbonyl)-4-oxido-1,4-azaphosphinan-4-yl)-4-fluorobenzyl)phthalazin-1(2H)-one [Example 6]",< 100
10,O=C(N1CCCC1)N1CCP(=O)(c2cc(Cc3n[nH]c(=O)c4ccccc34)ccc2F)CC1 [Example 10],100 to 1000
11,"O=c1[nH]nc(Cc2ccc(F)c(P3(=O)CCN(c4cc(C(F)(F)F)ccn4)CC3)c2)c2ccccc12 [Example 26, 4-(4-fluoro-3-(4-oxido-1-(4-(trifluoromethyl)pyridin-2-yl)-1,4-azaphosphinan-4-yl)benzyl)phthalazin-1(2H)-one]",< 100
12,"O=c1[nH]nc(Cc2ccc(F)c(P3(=O)CCN(c4ccccn4)CC3)c2)c2ccccc12 [Example 19, 4-(4-fluoro-3-(4-oxido-1-(pyridin-2-yl)-1,4-azaphosphinan-4-yl)benzyl)phthalazin-1(2H)-one]",< 100
13,"O=c1[nH]nc(Cc2ccc(F)c(P3(=O)CCN(CC(F)(F)F)CC3)c2)c2ccccc12 [Example 49, 4-(4-fluoro-3-(4-oxido-1-(2,2,2-trifluoroethyl)-1,4-azaphosphinan-4-yl)benzyl)phthalazin-1(2H)-one]",< 100
14,"O=c1[nH]nc(Cc2ccc(F)c(P3(=O)CCN(c4ncc(F)cn4)CC3)c2)c2ccccc12 [compound 35, 4-(4-fluoro-3-(4-oxido-1-(5-(fluoro)pyrimidin-2-yl)-1,4-azaphosphinan-4-yl)benzyl)phthalazin-1(2H)-one]",< 100
15,"[2H]C([2H])(c1ccc(F)c(P2(=O)CCN(C3CC3)CC2)c1)c1n[nH]c(=O)c2cc(F)ccc12 [Example 55, 4-[(3-(1-cyclopropyl-4-oxido-1,4-azaphosphinan-4-yl)-4-fluorophenyl)dideuteromethyl]-7-fluorophthalazin-1 (2H)-one]",< 100
16,"4-(4-fluoro-3-(4-oxido-1-(tetrahydrofuran-2-carbonyl)-1,4-azaphosphinan-4-yl)benzyl)phthalazin-1(2H)-one [Example 7]",100 to 1000
17,"O=c1[nH]nc(Cc2ccc(F)c(P3(=O)CCN(c4cccc(F)n4)CC3)c2)c2ccccc12 [Example 25, 4-(4-fluoro-3-(1-(6-fluoropyridin-2-yl)-4-oxido-1,4-azaphosphinan-4-yl)benzyl)phthalazin-1(2H)-one]",< 100

# Second part, the compound after the results:
row,IC50 [nM],Compound
1,< 100,"CCN1CCP(=O)(c2cc(Cc3n[nH]c(=O)c4ccccc34)ccc2F)CC1 [Example 41, 4-(3-(1-ethyl-4-oxido-1,4-azaphosphinan-4-yl)-4-fluorobenzyl)phthalazin-1(2H)-one]"
2,< 100,"O=c1[nH]nc(C(O)c2ccc(F)c(P3(=O)CCN(C4CC4)CC3)c2)c2ccccc12 (racemic) [Example 58, (±)-4-[(3-(1-cyclopropyl-4-oxido-1,4-azaphosphinan-4-yl)-4-fluoro-1-phenyl)(hydroxymethyl)]phthalazin-1(2H)-one]"
3,< 100,"O=c1[nH]nc(Cc2ccc(F)c(P3(=O)CCN(C4CC4)CC3)c2)c2ccccc12 [Example 38, 4-(3-(1-cyclopropyl-4-oxido-1,4-azaphosphinan-4-yl)-4-fluorobenzyl)phthalazin-1(2H)-one]"
4,< 100,"CC(=O)c1cccnc1N1CCP(=O)(c2cc(Cc3n[nH]c(=O)c4ccccc34)ccc2F)CC1 [Example 34, 4-(4-fluoro-3-(4-oxido-1-(3-(acetyl)pyridin-2-yl)-1,4-azaphosphinan-4-yl)benzyl)phthalazin-1(2H)-one]"
5,< 100,"O=c1[nH]nc(Cc2ccc(F)c(P3(=O)CCN(c4ncnc5ccccc45)CC3)c2)c2ccccc12 [Example 21, 4-(4-fluoro-3-(4-oxido-1-(quinazolin-4-yl)-1,4-azaphosphinan-4-yl)benzyl)phthalazin-1(2H)-one]"
6,< 100,"O=c1[nH]nc(Cc2ccc(F)c(P3(=O)CCN(C4CC4)CC3)c2)c2ccc(F)cc12 [Example 54, 4-(3-(1-cyclopropyl-4-oxido-1,4-azaphosphinan-4-yl)-4-fluorobenzyl)-7-fluorophthalazin-1(2H)-one]"
7,< 100,"O=c1[nH]nc(Cc2ccc(F)c(P3(=O)CCN(c4cc(Cl)ncn4)CC3)c2)c2ccccc12 [Example 22, 4-(3-(1-(6-chloropyrimidin-4-yl)-4-oxido-1,4-azaphosphinan-4-yl)-4-fluorobenzyl)phthalazin-1(2H)-one]"
8,100 to 1000,"CN(C)C(=O)N1CCP(=O)(c2cc(Cc3n[nH]c(=O)c4ccccc34)ccc2F)CC1 [Example 9, 4-(2-fluoro-5-((4-oxo-3,4-dihydrophthalazin-1-yl)methyl)phenyl)-N,N-dimethyl-1,4-azaphosphinane-1-carboxamide 4-oxide]"
9,< 100,"CC(C)N1CCP(=O)(c2cc(Cc3n[nH]c(=O)c4ccccc34)ccc2F)CC1 [Example 42, 4-(4-fluoro-3-(1-isopropyl-4-oxido-1,4-azaphosphinan-4-yl)benzyl)phthalazin-1(2H)-one]"
10,< 100,"N#Cc1ccc(N2CCP(=O)(c3cc(Cc4n[nH]c(=O)c5ccccc45)ccc3F)CC2)nc1 [Example 14, 6-(4-(2-fluoro-5-((4-oxo-3,4-dihydrophthalazin-1-yl)methyl)phenyl)-4-oxido-1,4-azaphosphinan-1-yl)nicotinonitrile]"
